Structures can show the parent of a compound that is named as a salt.
Test system: mice
Experiment: Neuropharmacological Assay (SmartCube): automated behavioral signature of compound-treated mice compared with a database of reference drug classes
Format: in vivo
Conditions: for minimal effective dose: Mus musculus, ip, read-out: MED; for minimal effective dose / MED: minimal effective dose: dose having 45% or more total activity in SmartCube, i.p., if only one dose tested, that dose is shown; for AG / AN / AP / AX / CE / HL / MS / PS / SH / AD / UK: SmartCube class probability, 3.0 mg/kg i.p., 15 min before test
Outline: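 Probabilities of matching each neuropharmacological class (e.g. anxiolytic, antidepressant) come from algorithmic analysis of digitally recorded behaviour, reported for 3.0 mg/kg. Compounds were given intraperitoneally in a Pharmasolve/PEG/propylene glycol vehicle 15 min pre-test. Minimal effective dose is the lowest dose reaching 45% or more total activity.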

SMILES: CC1(N)CCc2c(C(F)(F)F)csc2C1.Cl (single isomer, unassigned) [Compound 241, 6-methyl-3-(trifluoromethyl)-5,7-dihydro-4H-benzothiophen-6-amine hydrochloride]
- minimal effective dose: 3 mg/kg
- AG: ND (^ <4%)
- AN: ND (^ <4%)
- AP: ND (^ <4%)
- AX: ND (^ <4%)
- CE: ND (^ <4%)
- HL: ND (^ <4%)
- MS: ND (^ <4%)
- PS: ND (^ <4%)
- SH: ND (^ <4%)
- AD (hydrochloride, 3 mg/kg): + (≥4%)
- UK (hydrochloride, 3 mg/kg): ++++ (≥74%)

SMILES: CC1(N)CCc2c(C(F)(F)F)csc2C1.Cl (single isomer, unassigned) [Compound 242, 6-methyl-3-(trifluoromethyl)-5,7-dihydro-4H-benzothiophen-6-amine hydrochloride]
- AG: ND (^ <4%)
- AN: ND (^ <4%)
- AP: ND (^ <4%)
- AX: ND (^ <4%)
- CE: ND (^ <4%)
- HL: ND (^ <4%)
- MS: ND (^ <4%)
- PS: ND (^ <4%)
- SH: ND (^ <4%)
- AD (hydrochloride, 3 mg/kg): +++ (≥49%)
- UK (hydrochloride, 3 mg/kg): ND (^ <4%)
- MED: 3 mpk

SMILES: NC1CCc2c(C(F)(F)F)csc2C1 (single isomer, unassigned) [Compound 243, 3-(trifluoromethyl)-4,5,6,7-tetrahydrobenzothiophen-6-amine hydrochloride]
- minimal effective dose: 3 mg/kg
- AG: ND (^ <4%)
- AN: ND (^ <4%)
- AP: ND (^ <4%)
- AX: ND (^ <4%)
- CE: ND (^ <4%)
- HL: ND (^ <4%)
- MS: ND (^ <4%)
- PS: ND (^ <4%)
- SH: ND (^ <4%)
- UK: ND (^ <4%)
- AD (hydrochloride, 3 mg/kg): ++ (≥24%)

SMILES: NC1CCc2c(C(F)(F)F)csc2C1 (single isomer, unassigned) [Compound 244, 3-(trifluoromethyl)-4,5,6,7-tetrahydrobenzothiophen-6-amine hydrochloride]
- AG: ND (^ <4%)
- AN: ND (^ <4%)
- AP: ND (^ <4%)
- AX: ND (^ <4%)
- CE: ND (^ <4%)
- HL: ND (^ <4%)
- MS: ND (^ <4%)
- PS: ND (^ <4%)
- SH: ND (^ <4%)
- UK: ND (^ <4%)
- AD (hydrochloride, 3 mg/kg): ++++ (≥74%)
- MED (hydrochloride): <3 mpk

SMILES: CNC1(C)CCc2cc(C(F)(F)F)sc2C1.Cl (single isomer, unassigned) [Compound 245, N, 6-dimethyl-2-(trifluoromethyl)-5,7-dihydro-4H-benzothiophen-6-amine hydrochloride]
- minimal effective dose: 3 mg/kg
- AG: ND (^ <4%)
- AN: ND (^ <4%)
- AX: ND (^ <4%)
- CE: ND (^ <4%)
- HL: ND (^ <4%)
- MS: ND (^ <4%)
- PS: ND (^ <4%)
- SH: ND (^ <4%)
- AD (hydrochloride, 3 mg/kg): ++ (≥24%)
- AP (hydrochloride, 3 mg/kg): ND (^ <4%)
- UK (hydrochloride, 3 mg/kg): + (≥4%)

SMILES: CNC1(C)CCc2cc(C(F)(F)F)sc2C1.Cl (single isomer, unassigned) [Compound 246, N, 6-dimethyl-2-(trifluoromethyl)-5,7-dihydro-4H-benzothiophen-6-amine hydrochloride]
- AG: ND (^ <4%)
- AN: ND (^ <4%)
- AX: ND (^ <4%)
- CE: ND (^ <4%)
- HL: ND (^ <4%)
- MS: ND (^ <4%)
- PS: ND (^ <4%)
- SH: ND (^ <4%)
- AD (hydrochloride, 3 mg/kg): + (≥4%)
- AP (hydrochloride, 3 mg/kg): ++ (≥24%)
- UK (hydrochloride, 3 mg/kg): ++ (≥24%)
- MED: 3 mpk

SMILES: CNC1CCc2scc(C3CC3)c2C1 (single isomer, unassigned) [Compound 249, 3-cyclopropyl-N-methyl-4,5,6,7-tetrahydrobenzothiophen-5-amine hydrochloride]
- minimal effective dose: 3 mg/kg
- AD: ND (^ <4%)
- AG: ND (^ <4%)
- AN: ND (^ <4%)
- CE: ND (^ <4%)
- HL: ND (^ <4%)
- MS: ND (^ <4%)
- PS: ND (^ <4%)
- SH: ND (^ <4%)
- AP (hydrochloride, 3 mg/kg): ND (^ <4%)
- AX (hydrochloride, 3 mg/kg): ND (^ <4%)
- UK (hydrochloride, 3 mg/kg): ++ (≥24%)

SMILES: CNC1CCc2scc(C3CC3)c2C1 (single isomer, unassigned) [Compound 250, 3-cyclopropyl-N-methyl-4,5,6,7-tetrahydrobenzothiophen-5-amine hydrochloride]
- AD: ND (^ <4%)
- AG: ND (^ <4%)
- AN: ND (^ <4%)
- CE: ND (^ <4%)
- HL: ND (^ <4%)
- MS: ND (^ <4%)
- PS: ND (^ <4%)
- SH: ND (^ <4%)
- AP (hydrochloride, 3 mg/kg): + (≥4%)
- AX (hydrochloride, 3 mg/kg): ++++ (≥74%)
- UK (hydrochloride, 3 mg/kg): ND (^ <4%)
- MED: 3 mpk

SMILES: CCc1csc2c1CC(NC)CC2 (single isomer, unassigned) [Compound 251, 3-ethyl-N-methyl-4,5,6,7-tetrahydrobenzothiophen-5-amine hydrochloride]
- minimal effective dose: > 3 mg/kg
- AD: ND (^ <4%)
- AG: ND (^ <4%)
- AN: ND (^ <4%)
- AX: ND (^ <4%)
- HL: ND (^ <4%)
- MS: ND (^ <4%)
- SH: ND (^ <4%)
- AP (hydrochloride, 3 mg/kg): ND (^ <4%)
- UK (hydrochloride, 3 mg/kg): ++ (≥24%)

SMILES: CCc1csc2c1CC(NC)CC2 (single isomer, unassigned) [Compound 252, 3-ethyl-N-methyl-4,5,6,7-tetrahydrobenzothiophen-5-amine hydrochloride]
- AD: ND (^ <4%)
- AG: ND (^ <4%)
- AN: ND (^ <4%)
- AX: ND (^ <4%)
- HL: ND (^ <4%)
- MS: ND (^ <4%)
- SH: ND (^ <4%)
- AP (hydrochloride, 3 mg/kg): + (≥4%)
- CE (hydrochloride, 3 mg/kg): ND (^ <4%)
- PS (hydrochloride, 3 mg/kg): ND (^ <4%)
- UK (hydrochloride, 3 mg/kg): +++ (≥49%)
- MED (hydrochloride): 3 mpk

SMILES: NC1CCc2scc(C(F)(F)F)c2C1 (single isomer, unassigned) [Compound 254, 3-(trifluoromethyl)-4,5,6,7-tetrahydrobenzothiophen-5-amine hydrochloride]
- minimal effective dose: > 3 mg/kg
- AD: ND (^ <4%)
- AG: ND (^ <4%)
- AN: ND (^ <4%)
- AP: ND (^ <4%)
- AX: ND (^ <4%)
- CE: ND (^ <4%)
- HL: ND (^ <4%)
- MS: ND (^ <4%)
- PS: ND (^ <4%)
- SH: ND (^ <4%)
- UK (hydrochloride, 3 mg/kg): + (≥4%)

SMILES: NC1CCc2scc(C(F)(F)F)c2C1 (single isomer, unassigned) [Compound 255, 3-(trifluoromethyl)-4,5,6,7-tetrahydrobenzothiophen-5-amine hydrochloride]
- AD: ND (^ <4%)
- AG: ND (^ <4%)
- AN: ND (^ <4%)
- AP: ND (^ <4%)
- AX: ND (^ <4%)
- CE: ND (^ <4%)
- HL: ND (^ <4%)
- MS: ND (^ <4%)
- PS: ND (^ <4%)
- SH: ND (^ <4%)
- UK (hydrochloride, 3 mg/kg): ND (^ <4%)
- MED: >3 mpk

SMILES: CNC1CCc2sc(-c3ccccc3)cc2C1.Cl (single isomer, unassigned) [Compound 256, N-methyl-2-phenyl-4,5,6,7-tetrahydrobenzothiophen-5-amine hydrochloride]
- minimal effective dose: > 3 mg/kg
- AD: ND (^ <4%)
- AG: ND (^ <4%)
- AN: ND (^ <4%)
- AP: ND (^ <4%)
- AX: ND (^ <4%)
- CE: ND (^ <4%)
- HL: ND (^ <4%)
- MS: ND (^ <4%)
- PS: ND (^ <4%)
- SH: ND (^ <4%)
- UK (hydrochloride, 3 mg/kg): + (≥4%)

SMILES: CNC1CCc2sc(-c3ccccc3)cc2C1.Cl (single isomer, unassigned) [Compound 257, N-methyl-2-phenyl-4,5,6,7-tetrahydrobenzothiophen-5-amine hydrochloride]
- AD: ND (^ <4%)
- AG: ND (^ <4%)
- AN: ND (^ <4%)
- AP: ND (^ <4%)
- AX: ND (^ <4%)
- CE: ND (^ <4%)
- HL: ND (^ <4%)
- MS: ND (^ <4%)
- PS: ND (^ <4%)
- SH: ND (^ <4%)
- UK (hydrochloride, 3 mg/kg): ++ (≥24%)
- MED: >3 mpk

SMILES: CNC1COc2csc(C(F)(F)F)c2C1 (single isomer, unassigned) [Compound 258, N-methyl-5-(trifluoromethyl)-3,4-dihydro-2H-thieno[3,4-b]pyran-3-amine hydrochloride]
- minimal effective dose: > 3 mg/kg
- AD: ND (^ <4%)
- AG: ND (^ <4%)
- AN: ND (^ <4%)
- AP: ND (^ <4%)
- AX: ND (^ <4%)
- CE: ND (^ <4%)
- HL: ND (^ <4%)
- MS: ND (^ <4%)
- PS: ND (^ <4%)
- SH: ND (^ <4%)
- UK (hydrochloride, 3 mg/kg): + (≥4%)

SMILES: CNC1COc2csc(C(F)(F)F)c2C1 (single isomer, unassigned) [Compound 259, N-methyl-5-(trifluoromethyl)-3,4-dihydro-2H-thieno[3,4-b]pyran-3-amine hydrochloride]
- AD: ND (^ <4%)
- AG: ND (^ <4%)
- AN: ND (^ <4%)
- AP: ND (^ <4%)
- AX: ND (^ <4%)
- CE: ND (^ <4%)
- HL: ND (^ <4%)
- MS: ND (^ <4%)
- PS: ND (^ <4%)
- SH: ND (^ <4%)
- UK (hydrochloride, 3 mg/kg): ++ (≥24%)
- MED: >3 mpk
